{"source": "patent US10391166B2", "about": "“Short oligonucleotides as vaccine adjuvants and therapeutic agents” (priority 2013, dated 2019)", "key": {"M. tuberculosis [1]": {"test_system": "M. tuberculosis", "design": "species or system C57Bl/6 mice", "settings": "mouse, in vivo"}, "[2]": {"test_system": "C57Bl/6 mouse bone marrow derived macrophages", "type": "cell-based"}, "[3]": {"settings": "human liver S9 fractions", "description": "SB 44 (10 μM) was incubated with a mix containing S9 fraction (pooled from human) (1 mg/ml), NADPH (1.3 mM) UDPGA (5 mM), Alamethicin (10 μg/ml) in 1 ml of 1×PBS buffer. S-(5′-adenosyl)-L-methionine iodide (0.1 mM), adenosine 3′-phosphate 5′-phosphosulfate lithium salt hydrate (0.1 mM) and acetyl CoA (1 mM). The metabolite samples were evaluated by HPLC and LC/MS analysis."}, "RIG-I and NOD2 [4]": {"test_system": "RIG-I and NOD2", "type": "cell-based", "settings": "receptor-deficient cells, exogenous RIG-I and NOD2"}, "NOD2": {"target": "T1, NOD2 (Homo sapiens, UniProt Q9HC29)", "T1 construct": "expressed in transfected cells; host or cells: HEK 293", "T1 sequence (Q9HC29 whole entry, species assumed)": "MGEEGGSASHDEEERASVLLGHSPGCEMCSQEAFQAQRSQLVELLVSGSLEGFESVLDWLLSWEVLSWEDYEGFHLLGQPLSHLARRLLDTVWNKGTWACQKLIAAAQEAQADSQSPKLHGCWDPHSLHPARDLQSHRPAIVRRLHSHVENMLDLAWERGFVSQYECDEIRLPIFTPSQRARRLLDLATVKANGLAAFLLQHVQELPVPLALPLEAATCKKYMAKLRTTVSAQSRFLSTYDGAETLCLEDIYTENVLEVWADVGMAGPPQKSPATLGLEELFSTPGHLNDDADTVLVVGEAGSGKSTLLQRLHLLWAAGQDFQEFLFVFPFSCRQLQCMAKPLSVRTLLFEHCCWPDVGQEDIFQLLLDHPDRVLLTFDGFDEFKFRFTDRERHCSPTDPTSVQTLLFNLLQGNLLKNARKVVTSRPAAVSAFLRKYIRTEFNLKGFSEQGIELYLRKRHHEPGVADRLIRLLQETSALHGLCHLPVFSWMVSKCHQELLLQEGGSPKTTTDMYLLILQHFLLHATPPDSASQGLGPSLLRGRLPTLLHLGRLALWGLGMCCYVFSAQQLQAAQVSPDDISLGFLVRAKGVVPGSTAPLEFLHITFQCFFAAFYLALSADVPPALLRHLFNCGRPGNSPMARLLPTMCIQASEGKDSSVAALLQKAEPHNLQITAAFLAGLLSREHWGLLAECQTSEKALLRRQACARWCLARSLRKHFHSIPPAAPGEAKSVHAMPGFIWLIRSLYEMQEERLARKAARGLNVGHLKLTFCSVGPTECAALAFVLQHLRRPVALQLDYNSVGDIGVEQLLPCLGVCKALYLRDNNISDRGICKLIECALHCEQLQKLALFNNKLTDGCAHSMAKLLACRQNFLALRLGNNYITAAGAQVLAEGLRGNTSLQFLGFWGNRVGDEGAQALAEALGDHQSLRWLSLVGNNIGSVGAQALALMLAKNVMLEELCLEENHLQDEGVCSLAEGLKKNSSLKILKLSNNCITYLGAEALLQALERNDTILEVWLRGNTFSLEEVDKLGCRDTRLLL", "experiment": "IRF3-luciferase assay in HEK 293 cells transfected with NOD2", "type": "cell-based", "settings": "HEK 293 transfected with NOD2, pcDNA and IRF3-luciferase; 1 μM; 12 h", "description": "HEK 293 cells were transfected with NOD2, pcDNA and IRF3-luciferase. The cells were then incubated with ssRNA (0.5 mg/ml) or SMNH compounds (1 μM). Following 12 h incubation, Luciferase activity was measured as described previously. The luciferase assay results are presented as mean±S.D. from three independent experiments (detailed materials and methods employed in these assays, see: ref (28). The results are depicted in FIG. 2."}, "[5]": {"test_system": "MDBK, Vero, and HFF cell lines", "experiment": "in vitro", "settings": "cell line not specified (table footnote)", "description": "(§1) SB 44 was subjected to cytotoxicity evaluation against a panel of cell lines including Madin-Darby bovine kidney (MDBK), Vero, and HFF (human foreskin fibroblasts) to determine their CC50. Standard Microculture Tetrazolium Assay (MTT) assays were performed in 96-well plates using MDBK, Vero, and HFF cell lines (obtained from American Type Cell Collection). Controls included the nucleoside analogs 3TC, AZT, and ddC, as well as media without drugs. SDS was used as a positive cytotoxic control. All prodrugs were tested in triplicate at concentrations of 100, 300, and 1000 μM. Following a 24-hour incubation of cells with the test substance, the MTT assay was carried out.\n(§2) Standard MTT assays were performed in 96-well plates using the Promega CellTiter96 Non-radioactive Cell Proliferation Assay Kit in conjunction with a 96-well Plate Reader (ThermoMax, Molecular devices), and MDBK, Vero, and HFF cell lines (obtained from ATCC). Several controls were employed including the nucleoside analogs 3TC, AZT, and ddC, as well as, media without drugs. SDS was used as a positive cytotoxic control. The compounds were tested in triplicate at concentrations of 100, 300, and 1000 μM. Following a 24-hour incubation of cells with the test substance, the MTT assay was carried out."}, "MHC-II": {"test_system": "MHC-II", "type": "cell-based, mouse"}, "[6]": {"test_system": "peripheral blood mononuclear cells (PBMCs)", "experiment": "Multiplex assay for 28 cytokines in PBMCs", "type": "cell-based, human", "settings": "up to 50 μM"}, "[7]": {"test_system": "IRF3-luciferase reporter gene", "experiment": "IRF3-luciferase reporter induction in HLE A549 cells (primary assay for NOD2 activation)", "type": "cell-based, human", "settings": "12 h incubation", "description": "The evaluation of SMNH compounds for NOD2 activation was conducted by primary, secondary, and tertiary assays. In the primary assays, SMNH compounds were tested for the induction of IRF3 expression in HLE A549 cells, which are known to endogenously express NOD2. […] SB 44, a mixture of two isomers Rp and Sp, is a prodrug of SB 40. SB 1B—the Rp isomer of SB 44 and is shown as SB 44-1 in the FIGS. 1-2.\nIRF3-luciferase transfected cells were incubated with either DMSO only (UT) or SMNH compounds (μM). Following 12 h incubation, luciferase activity was measured using Dual-Luciferase Reporter Assay System (Promega) according to the manufacturer's protocol. Transfection efficiency was normalized by measuring the expression of renilla Luciferase. Luciferase units (i.e., fold induction) were measured by standard methodology (mean±standard deviation; 3 independent experiments). The results are depicted in FIG. 1."}, "PBMCs": {"test_system": "PBMCs", "type": "cell-based"}, "[8]": {"description": "The objectives of this study were to determine potential toxic effects of SB 44 following daily oral dose administration for 14 days, and to evaluate the genotoxicity of SB 44 as determined by micronucleus evaluation. Male and female Sprague-Dawley rats were administered SB 44 daily at doses of 50, 200 and 500 mg/kg/day for 14 consecutive days. […] Micronucleus evaluations were performed to determine the potential genotoxicity of SB 44. Necropsies were performed on Day 15 for rats in the main study group and on Day 28 for rats in the recovery group."}, "in vitro": {"experiment": "in vitro", "settings": "bovine (MDBK), African green monkey (Vero), human (HFF)", "description": "as §1, §2"}, "interferon-β (IFN-β)": {"test_system": "interferon-β (IFN-β)", "experiment": "IFN-β production from human lung epithelial A549 cells", "type": "cell-based"}, "M. tuberculosis [9]": {"test_system": "M. tuberculosis", "design": "species or system C57Bl/6 mice", "settings": "mouse, in vivo", "remark": "listed apart in the source"}, "IL-1β": {"test_system": "IL-1β", "experiment": "Mature IL-1β ELISA in mouse bone marrow derived primary macrophages", "type": "cell-based", "settings": "alone or with MDP or BCG, caspase blockade with ZVAD-fmk", "description": "C57Bl/6 mouse bone marrow derived primary macrophages were treated with SB 1A or SB 1B alone, MDP alone or in combination as indicated for 4 hrs. BCG was used for infection for 4 hrs and supernatants collected 18 hr later titrated for mature IL1β using ELISA. Macrophages were first treated with ZVAD-fmk (2 hrs) for caspase blockade followed by activation with SB 1A and SB 1B (4 hrs) and BCG infection (4 hrs). Cytokine was measured 18 hrs later."}, "RIG-I and NOD2 [10]": {"test_system": "RIG-I and NOD2", "experiment": "Induction of responder genes RIG-I and NOD2", "type": "cell-based"}}, "note": "Entries after “also recorded” stand apart in the source; their conditions may differ.", "data": [{"molecule": "COC1C(OP(=O)(S)OCC2OC(n3cnc4c(N)ncnc43)CC2O)C(CO)OC1n1ccc(=O)[nH]c1=O", "note": "(mixture of isomers) [SB 40]", "values": [{"measurement": "anti-TB T cell function of mice", "setting": "M. tuberculosis [1]", "result": "dramatic increase in anti-TB T cell function of mice"}, {"measurement": "antigen presentation (Antigen-85B) in macrophages", "setting": "[2]", "result": "enhance antigen presentation in vitro"}, {"measurement": "phase II conjugative reactions", "setting": "[3]", "result": "no apparent evidence of any phase II conjugative reactions"}, {"measurement": "enhancement of ISG-56 expression over that induced by PolyI-PolyC", "setting": "RIG-I and NOD2 [4]", "result": 2, "unit": "fold"}, {"measurement": "IRF3 activation mediated via NOD2", "setting": "NOD2", "result": "mediated via NOD2 activation"}, {"measurement": "CC50", "setting": "[5]", "result": "> 1000", "unit": "µM"}, {"measurement": "surface expression of MHC-II", "setting": "MHC-II", "result": "increase MHC-II in MΦs"}, {"measurement": "cytokine induction in human PBMC cultures", "setting": "[6]", "result": "did not cause cytokine induction"}, {"measurement": "IRF3 activation (IRF3-luciferase)", "setting": "[7]", "result": "induced IRF3 activation"}, {"measurement": "IFN production in the presence of BCG", "setting": "PBMCs", "result": "modest augmentation of IFN production"}, {"measurement": "systemic exposure females versus males, largest difference", "setting": "[8]; Day 14, 500 mg/kg dose groups", "result": "about twofold"}, {"measurement": "Day 14 Cmax and AUClast values versus Day 1", "setting": "[8]; SB 40 in plasma, each dose of SB 44", "result": "higher than those on Day 1"}, {"measurement": "dose relationship for Cmax and AUClast", "setting": "[8]; SB 40 in plasma, male and female rats, Days 1 and 14", "result": "nonlinear dose relationship"}]}, {"molecule": "COC1[C@@H](OP(=O)(OC[C@H]2O[C@@H](n3cnc4c(N)ncnc43)C[C@H]2O)SCOC(=O)OC(C)C)[C@@H](CO)O[C@H]1n1ccc(=O)[nH]c1=O", "note": "(stereo partly drawn) [Compound 3]", "values": [{"measurement": "CC50 at 24 h", "setting": "in vitro", "result": "> 1000", "unit": "µM"}]}, {"molecule": "COC1C(OP(=O)(OCC2OC(n3cnc4c(N)ncnc43)CC2O)SCOC(=O)OC(C)C)C(CO)OC1n1ccc(=O)[nH]c1=O", "note": "(stereo not drawn) [SB 1B]", "values": [{"measurement": "Mtb counts of lungs", "setting": "M. tuberculosis [1]", "result": "reducing Mtb counts of lungs better than either BCG or MDP+BCG"}, {"measurement": "Mtb counts of spleens", "setting": "M. tuberculosis [1]", "result": "better than BCG vaccine in reducing Mtb counts of spleens"}, {"measurement": "adjuvant efficacy with BCG vaccine against tuberculosis", "setting": "M. tuberculosis [1]", "result": "more efficacious as an adjuvant than SB 44; also recorded: better than muramyl dipeptide (MDP) as adjuvants"}, {"measurement": "anti-TB T cell function of mice", "setting": "M. tuberculosis [1]", "result": "dramatic increase in anti-TB T cell function of mice"}, {"measurement": "numbers of multi-functional T cells", "setting": "M. tuberculosis [1]", "result": "enhances the numbers of multi-functional T cells compared to BCG vaccine"}, {"measurement": "tetramer specific CD8 T cells", "setting": "M. tuberculosis [1]", "result": "comparable levels of tetramer specific CD8 T cells"}, {"measurement": "antigen presentation (Antigen-85B) in macrophages", "setting": "[2]", "result": "enhance antigen presentation in vitro; also recorded: retain full activity"}, {"measurement": "production of IFN-β", "setting": "interferon-β (IFN-β)", "result": "results in production of IFN-β"}, {"measurement": "antigen specific CD8 / memory T cells in lungs of re-challenged mice", "setting": "M. tuberculosis [9]", "result": "boost the magnitude of antigen specific memory T cells; also recorded: induces a robust expansion of antigen specific CD8 T cells"}, {"measurement": "protection against re-challenge of tuberculosis", "setting": "M. tuberculosis [9]", "result": "protects twice as better than BCG; also recorded: induce protection against re-challenge of tuberculosis in mice"}, {"measurement": "recall response against re-challenge with tuberculosis", "setting": "M. tuberculosis [9]", "result": "retain the ability to mount a better recall response"}, {"measurement": "IRF3 activation mediated via NOD2", "setting": "NOD2", "result": "mediated via NOD2 activation"}, {"measurement": "surface expression of MHC-II", "setting": "MHC-II", "result": "increase MHC-II in MΦs"}, {"measurement": "induction of mature IL-1β", "setting": "IL-1β", "result": "induce IL-1β only in combination with either MDP or intact BCG bacilli"}, {"measurement": "induction of responder genes RIG-I and NOD2", "setting": "RIG-I and NOD2 [10]", "result": "induction of responder genes RIG-I and NOD2"}, {"measurement": "IRF3 activation (IRF3-luciferase)", "setting": "[7]", "result": "induced IRF3 activation"}]}]}
